Measured values published in ChEMBL document CHEMBL5370623, “Discovery of Quinazoline-2,4(1H,3H)-dione Derivatives Containing a Piperizinone Moiety as Potent PARP-1/2 Inhibitors─Design, Synthesis, In Vivo Antitumor Activity, and X-ray Crystal Structure Analysis” (J Med Chem, 2023).
The source made the active and inactive calls. The rule behind the calls is not given here.

Assays:
[1] = AUC (0 to t) in BALB/c mouse at 2.5 mg/kg, iv measured upto 24 hrs by LC-MS/MS analysis; format: ADME, organism-based; set-up: time < 24 hrs, dose 2.5 mg/kg, route iv; conditions: in vivo
[2] = Binding affinity to cat PARP1 assessed as dissociation constant by SPR assay; set-up: species or system Felis catus
[3] = Toxicity in Balb/c athymic nude mouse xenografted with BRCAl-deficient human MDA-MB-436 cells assessed as change in body weight at 1.1 to 10 mg/kg, po qd measured after 23 days; format: organism-based; conditions: in vivo, 552 h, dose 1.1-10 mg/kg, time 23 day
[4] = AUC (0 to t) in BALB/c mouse at 25 mg/kg, po measured upto 24 hrs by LC-MS/MS analysis; format: ADME, organism-based; set-up: time < 24 hrs, dose 25 mg/kg, route po; conditions: in vivo
[5] = molecular target: Protein mono-ADP-ribosyltransferase TIPARP (Homo sapiens, UniProt Q7Z3E1); test: Inhibition of human recombinant N-terminal FLAG-tagged PARP7 (400 to 657(end) residues) expressed in Sf9 cells
DU-145 [6] = test: Antitumor activity against PTEN-deficient human DU-145 cells xenografted in Balb/c athymic nude mouse assessed as tumor growth inhibition at 10 mg/kg, po qd measured after 14 days; format: functional; conditions: DU-145, 336 h, time 14 day, read-out: TGI
[7] = Oral bioavailability in BALB/c mouse at 25 mg/kg measured upto 24 hrs by LC-MS/MS analysis; format: ADME, organism-based; conditions: in vivo
MC-38 [8] = test: Antitumor activity against mouse MC38 cells implanted in C57BL/6 mouse assessed as tumor growth inhibition at 10 mg/kg, po qd measured after 17 days; format: functional; conditions: MC-38, 408 h, time 17 day, read-out: TGI
MDA-MB-436 [9] = test: Antitumor activity against BRCAl-deficient human MDA-MB-436 cells xenografted in Balb/c athymic nude mouse assessed as tumor growth inhibition at 10 mg/kg, po qd measured after 23 days; format: functional; conditions: MDA-MB-436, 552 h, time 23 day, read-out: TGI
[10] = AUC (0 to infinity) in BALB/c mouse at 2.5 mg/kg, iv measured upto 24 hrs by LC-MS/MS analysis; format: ADME, organism-based; set-up: dose 2.5 mg/kg, time < 24 hrs, route iv; conditions: in vivo
[11] = Toxicity in C57BL/6 mouse implanted with mouse MC38 cells assessed as change in body weight at 10 mg/kg, po qd measured after 17 days; format: organism-based, MC-38; conditions: in vivo, 408 h, time 17 day
[12] = molecular target: T1, Poly [ADP-ribose] polymerase 2 (Homo sapiens, UniProt Q9UGN5); test: Inhibition of human recombinant PARP2 expressed in Escherichia coli BL21(DE3) incubated for 1 hr by ELISA assay
[13] = Cmax in BALB/c mouse at 2.5 mg/kg, iv measured upto 24 hrs by LC-MS/MS analysis; format: ADME, organism-based; set-up: time < 24 hrs, dose 2.5 mg/kg, route iv; conditions: in vivo
DU-145 [14] = test: Antitumor activity against PTEN-deficient human DU-145 cells xenografted in Balb/c athymic nude mouse assessed as tumor growth inhibition at 20 mg/kg, po qd measured after 14 days; format: functional; conditions: DU-145, 336 h, time 14 day, read-out: TGI
[15] = molecular target: Protein mono-ADP-ribosyltransferase PARP8 (Homo sapiens, UniProt Q8N3A8); test: Inhibition of PARP8 (unknown origin)
[16] = Tmax in BALB/c mouse at 25 mg/kg, po measured upto 24 hrs by LC-MS/MS analysis; format: ADME, organism-based; conditions: in vivo
[17] = molecular target: Protein mono-ADP-ribosyltransferase PARP6 (Homo sapiens, UniProt Q2NL67); test: Inhibition of human recombinant N-terminal GST-tagged PARP6 (1 to 630(end) residues) expressed in Sf9 cells
[18] = molecular target: T1, Poly [ADP-ribose] polymerase 2
Description: Inhibition of human recombinant N-terminal GST-tagged PARP2 (2 to 583(end) residues) expressed in Sf9 cells

[19] = MRT (0 to infinity) in BALB/c mouse at 25 mg/kg, po measured upto 24 hrs by LC-MS/MS analysis; format: ADME, organism-based; conditions: in vivo
DU-145 [20] = test: Antitumor activity against PTEN-deficient human DU-145 cells xenografted in Balb/c athymic nude mouse assessed as tumor growth inhibition at 5 mg/kg, po qd measured after 14 days; format: functional; conditions: DU-145, 336 h, time 14 day, read-out: TGI
MDA-MB-436 [21] = test: Antitumor activity against BRCAl-deficient human MDA-MB-436 cells xenografted in Balb/c athymic nude mouse assessed as tumor growth inhibition at 3.3 mg/kg, po qd measured after 23 days; format: functional; conditions: MDA-MB-436, 552 h, time 23 day, read-out: TGI
[22] = AUC (0 to infinity) in BALB/c mouse at 25 mg/kg, po measured upto 24 hrs by LC-MS/MS analysis; format: ADME, organism-based; set-up: dose 25 mg/kg, time < 24 hrs, route po; conditions: in vivo
[23] = MRT (0 to t) in BALB/c mouse at 2.5 mg/kg, iv measured upto 24 hrs by LC-MS/MS analysis; format: ADME, organism-based; conditions: in vivo
[24] = Aqueous solubility of the compound; format: physicochemical
[25] = molecular target: T2, Poly [ADP-ribose] polymerase 1 (Homo sapiens, UniProt P09874); test: Inhibition of human recombinant N-terminal GST-tagged PARP1 (2 to 1014(end) residues) expressed in Sf9 cells
[26] = Half life in BALB/c mouse at 2.5 mg/kg, iv measured upto 24 hrs by LC-MS/MS analysis; format: ADME, organism-based; conditions: in vivo
[27] = molecular target: Protein mono-ADP-ribosyltransferase PARP3 (Homo sapiens, UniProt Q9Y6F1); test: Inhibition of human recombinant N-terminal GST-tagged PARP3 (2 to 540(end) residues) expressed in Sf9 cells
MDA-MB-436 [28] = test: Antitumor activity against BRCAl-deficient human MDA-MB-436 cells xenografted in Balb/c athymic nude mouse assessed as tumor growth inhibition at 1.1 mg/kg, po qd measured after 23 days; format: functional; conditions: MDA-MB-436, 552 h, time 23 day, read-out: TGI
[29] = Toxicity in Balb/c athymic nude mouse xenografted with PTEN-deficient human DU145 cells assessed as change in body weight at 5 to 20 mg/kg, po qd measured after 14 days; format: organism-based, DU-145; conditions: in vivo, 336 h, dose 5-20 mg/kg, time 14 day
[30] = Binding affinity to cat PARP2 assessed as dissociation constant by SPR assay; set-up: species or system Felis catus
[31] = Cmax in BALB/c mouse at 25 mg/kg, po measured upto 24 hrs by LC-MS/MS analysis; format: ADME, organism-based; set-up: time < 24 hrs, dose 25 mg/kg, route po; conditions: in vivo
[32] = Half life in BALB/c mouse at 25 mg/kg, po measured upto 24 hrs by LC-MS/MS analysis; format: ADME, organism-based; conditions: in vivo
[33] = molecular target: T2, Poly [ADP-ribose] polymerase 1; test: Inhibition of human recombinant PARP1 expressed in Escherichia coli BL21(DE3) incubated for 1 hr by ELISA assay
[34] = MRT (0 to infinity) in BALB/c mouse at 2.5 mg/kg, iv measured upto 24 hrs by LC-MS/MS analysis; format: ADME, organism-based; conditions: in vivo
[35] = Tmax in BALB/c mouse at 2.5 mg/kg, iv measured upto 24 hrs by LC-MS/MS analysis; format: ADME, organism-based; conditions: in vivo
[36] = MRT (0 to t) in BALB/c mouse at 25 mg/kg, po measured upto 24 hrs by LC-MS/MS analysis; format: ADME, organism-based; conditions: in vivo
MX1 [37] = test: Potentiation factor, ratio of IC50 for cytotoxicity against human MX1 cells to IC50 for cytotoxicity against human MX1 cells in presence of temozolomide; format: functional
Felis catus [38] = organism: Felis catus; test: Binding affinity to cat PARP1 assessed as dissociative half-life by SPR assay
MC-38 [39] = test: Antitumor activity against mouse MC38 cells implanted in C57BL/6 mouse assessed as increase in CD8+T cells in tumor at 50 mg/kg, po qd measured after 17 days by flow cytometry analysis; format: functional, organism-based; conditions: time 17.0 day
MC-38 [40] = test: Antitumor activity against mouse MC38 cells implanted in C57BL/6 mouse assessed as tumor growth inhibition at 50 mg/kg, po qd measured after 17 days; format: functional; conditions: time 17 day
Felis catus [41] = organism: Felis catus; test: Binding affinity to cat PARP2 assessed as dissociative half-life by SPR assay
MX1 [42] = test: Cytotoxicity against human MX1 cells […] assessed as inhibition of cell growth measured after 72 hrs by MTT assay; format: functional, cell-based; conditions: MX1, 72 h

T2 sequence (P09874 whole entry): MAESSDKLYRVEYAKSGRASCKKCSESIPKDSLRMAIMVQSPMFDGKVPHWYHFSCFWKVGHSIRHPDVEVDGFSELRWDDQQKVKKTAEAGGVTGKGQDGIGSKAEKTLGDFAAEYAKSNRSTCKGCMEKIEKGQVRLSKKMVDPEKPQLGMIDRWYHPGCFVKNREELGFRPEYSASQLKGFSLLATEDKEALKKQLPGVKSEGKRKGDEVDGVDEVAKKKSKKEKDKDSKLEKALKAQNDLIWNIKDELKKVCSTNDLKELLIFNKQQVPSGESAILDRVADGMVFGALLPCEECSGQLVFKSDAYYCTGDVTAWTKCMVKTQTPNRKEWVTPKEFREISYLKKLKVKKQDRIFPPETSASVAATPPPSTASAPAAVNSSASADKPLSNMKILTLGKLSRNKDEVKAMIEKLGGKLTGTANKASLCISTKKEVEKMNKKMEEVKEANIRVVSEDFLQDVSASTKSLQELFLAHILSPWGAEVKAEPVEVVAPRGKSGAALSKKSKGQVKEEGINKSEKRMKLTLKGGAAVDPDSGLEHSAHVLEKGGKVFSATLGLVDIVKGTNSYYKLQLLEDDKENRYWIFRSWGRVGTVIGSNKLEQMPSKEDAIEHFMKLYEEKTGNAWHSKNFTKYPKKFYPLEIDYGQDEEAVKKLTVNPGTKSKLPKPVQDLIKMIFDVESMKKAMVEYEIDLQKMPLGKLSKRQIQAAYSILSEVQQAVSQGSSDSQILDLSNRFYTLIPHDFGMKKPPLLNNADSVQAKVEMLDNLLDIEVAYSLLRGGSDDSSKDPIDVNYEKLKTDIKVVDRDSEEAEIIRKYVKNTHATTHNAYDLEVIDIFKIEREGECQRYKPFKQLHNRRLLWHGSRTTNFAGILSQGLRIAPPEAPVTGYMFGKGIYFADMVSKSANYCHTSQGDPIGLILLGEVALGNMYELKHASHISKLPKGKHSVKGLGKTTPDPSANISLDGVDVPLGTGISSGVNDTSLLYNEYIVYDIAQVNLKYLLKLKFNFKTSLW
T1 sequence (Q9UGN5 whole entry): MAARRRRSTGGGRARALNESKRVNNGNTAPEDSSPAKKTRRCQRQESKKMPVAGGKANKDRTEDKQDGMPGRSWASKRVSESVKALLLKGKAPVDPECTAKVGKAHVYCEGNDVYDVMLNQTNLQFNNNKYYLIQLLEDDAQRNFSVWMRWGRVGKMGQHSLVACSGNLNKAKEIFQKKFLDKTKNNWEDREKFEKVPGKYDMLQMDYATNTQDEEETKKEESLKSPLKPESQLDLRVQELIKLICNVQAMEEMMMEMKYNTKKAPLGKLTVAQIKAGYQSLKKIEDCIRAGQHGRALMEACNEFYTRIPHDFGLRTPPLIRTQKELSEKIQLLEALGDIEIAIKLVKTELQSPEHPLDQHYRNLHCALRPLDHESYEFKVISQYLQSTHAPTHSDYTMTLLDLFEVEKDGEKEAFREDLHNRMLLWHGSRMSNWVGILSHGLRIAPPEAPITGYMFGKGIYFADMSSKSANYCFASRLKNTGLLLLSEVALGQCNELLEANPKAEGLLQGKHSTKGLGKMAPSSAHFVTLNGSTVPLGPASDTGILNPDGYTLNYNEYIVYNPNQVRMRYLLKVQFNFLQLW
Protein mono-ADP-ribosyltransferase TIPARP, sequence (Q7Z3E1 whole entry): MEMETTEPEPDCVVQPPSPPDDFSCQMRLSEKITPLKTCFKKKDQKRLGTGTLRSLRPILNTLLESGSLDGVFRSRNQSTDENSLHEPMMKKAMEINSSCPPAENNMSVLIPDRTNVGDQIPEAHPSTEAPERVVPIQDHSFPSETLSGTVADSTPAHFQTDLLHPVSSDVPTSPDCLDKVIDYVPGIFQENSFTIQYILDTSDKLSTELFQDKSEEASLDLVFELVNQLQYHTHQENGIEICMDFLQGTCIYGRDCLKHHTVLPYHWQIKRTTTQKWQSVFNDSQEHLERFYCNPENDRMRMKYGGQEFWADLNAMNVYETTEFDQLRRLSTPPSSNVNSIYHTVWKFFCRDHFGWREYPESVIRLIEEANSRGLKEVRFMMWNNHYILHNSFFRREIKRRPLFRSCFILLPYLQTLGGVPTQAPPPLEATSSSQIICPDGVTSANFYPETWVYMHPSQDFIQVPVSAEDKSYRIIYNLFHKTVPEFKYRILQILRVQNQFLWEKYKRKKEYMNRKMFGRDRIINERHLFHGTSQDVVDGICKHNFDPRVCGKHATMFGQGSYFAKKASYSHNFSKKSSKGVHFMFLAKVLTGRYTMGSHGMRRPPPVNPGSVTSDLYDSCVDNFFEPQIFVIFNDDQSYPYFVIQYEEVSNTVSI
Protein mono-ADP-ribosyltransferase PARP8, sequence (Q8N3A8 whole entry): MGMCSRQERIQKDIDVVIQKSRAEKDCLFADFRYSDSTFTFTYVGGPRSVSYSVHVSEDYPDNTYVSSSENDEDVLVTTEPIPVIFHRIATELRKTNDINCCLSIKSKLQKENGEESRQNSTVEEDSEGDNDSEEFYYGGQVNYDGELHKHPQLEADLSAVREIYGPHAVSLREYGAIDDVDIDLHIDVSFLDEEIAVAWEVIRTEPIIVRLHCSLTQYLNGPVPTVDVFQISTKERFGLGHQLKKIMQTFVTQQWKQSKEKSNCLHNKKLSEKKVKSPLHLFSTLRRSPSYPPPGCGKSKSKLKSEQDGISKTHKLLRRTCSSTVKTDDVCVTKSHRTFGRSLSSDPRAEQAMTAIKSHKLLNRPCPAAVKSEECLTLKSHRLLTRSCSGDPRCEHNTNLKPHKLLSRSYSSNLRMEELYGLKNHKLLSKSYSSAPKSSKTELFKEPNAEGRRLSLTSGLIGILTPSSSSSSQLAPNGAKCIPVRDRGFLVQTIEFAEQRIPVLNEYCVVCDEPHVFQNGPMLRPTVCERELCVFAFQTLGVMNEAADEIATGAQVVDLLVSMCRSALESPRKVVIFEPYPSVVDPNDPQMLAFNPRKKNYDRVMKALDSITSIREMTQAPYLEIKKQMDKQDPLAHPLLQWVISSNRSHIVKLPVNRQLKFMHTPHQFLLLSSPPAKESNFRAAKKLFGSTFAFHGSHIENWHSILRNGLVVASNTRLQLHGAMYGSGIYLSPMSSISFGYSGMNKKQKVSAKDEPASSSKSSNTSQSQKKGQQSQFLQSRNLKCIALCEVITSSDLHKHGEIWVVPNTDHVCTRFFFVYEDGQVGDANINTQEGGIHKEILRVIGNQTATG
Protein mono-ADP-ribosyltransferase PARP3, sequence (Q9Y6F1 whole entry): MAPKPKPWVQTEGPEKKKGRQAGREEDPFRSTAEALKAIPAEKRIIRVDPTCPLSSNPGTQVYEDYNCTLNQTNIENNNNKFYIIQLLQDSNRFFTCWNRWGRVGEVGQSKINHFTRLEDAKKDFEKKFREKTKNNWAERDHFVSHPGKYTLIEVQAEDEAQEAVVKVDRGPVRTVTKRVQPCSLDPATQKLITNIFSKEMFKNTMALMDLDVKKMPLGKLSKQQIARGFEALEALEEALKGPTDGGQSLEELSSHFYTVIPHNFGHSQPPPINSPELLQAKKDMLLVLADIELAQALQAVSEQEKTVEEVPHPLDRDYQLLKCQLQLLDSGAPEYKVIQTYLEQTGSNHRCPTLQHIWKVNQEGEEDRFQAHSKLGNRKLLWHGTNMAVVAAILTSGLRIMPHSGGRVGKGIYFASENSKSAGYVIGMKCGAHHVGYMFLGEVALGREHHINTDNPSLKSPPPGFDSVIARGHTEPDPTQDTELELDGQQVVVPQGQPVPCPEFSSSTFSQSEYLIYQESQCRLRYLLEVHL
Protein mono-ADP-ribosyltransferase PARP6, sequence (Q2NL67 whole entry): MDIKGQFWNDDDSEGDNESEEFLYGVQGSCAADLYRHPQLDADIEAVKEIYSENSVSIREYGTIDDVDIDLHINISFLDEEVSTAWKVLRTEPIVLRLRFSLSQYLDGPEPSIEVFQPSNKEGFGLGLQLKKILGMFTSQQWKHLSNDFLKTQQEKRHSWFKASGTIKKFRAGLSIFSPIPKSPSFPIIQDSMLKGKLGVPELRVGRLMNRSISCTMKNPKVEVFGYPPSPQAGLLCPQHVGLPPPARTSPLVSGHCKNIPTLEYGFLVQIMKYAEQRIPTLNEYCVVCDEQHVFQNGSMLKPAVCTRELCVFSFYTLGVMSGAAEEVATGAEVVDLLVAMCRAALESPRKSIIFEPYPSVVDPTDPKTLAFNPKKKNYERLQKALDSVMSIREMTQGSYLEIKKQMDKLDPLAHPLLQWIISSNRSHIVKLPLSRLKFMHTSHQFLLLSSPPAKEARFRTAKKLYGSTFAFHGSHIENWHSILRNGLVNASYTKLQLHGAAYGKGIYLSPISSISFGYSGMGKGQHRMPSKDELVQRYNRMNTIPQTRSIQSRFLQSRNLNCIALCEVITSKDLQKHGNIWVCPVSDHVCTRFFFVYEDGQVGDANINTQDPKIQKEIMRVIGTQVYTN

Structure (SMILES): CCC(CC)N1CCN(C(=O)c2cc(Cn3c(=O)[n-]c(=O)c4ccccc43)ccc2F)CC1=O.[Na+]
- AUC(0-t) at 24 h [1]: 417 ng·h/mL
- Kd [2]: 830 pM
- Activity [3]: Non-Toxic
- AUC(0-t) at 24 h [4]: 612 ng·h/mL
- IC50 [5]: 210 pM
- inhibition in vivo at 10 mg/kg (DU-145 [6]): 87%
- bioavailability [7]: 14.7%
- inhibition in vivo at 10 mg/kg (MC-38 [8]): 57.3%
- inhibition in vivo at 10 mg/kg (MDA-MB-436 [9]): 94.3%
- AUC(0-inf) [10]: 419 ng·h/mL
- Activity [11]: Non-Toxic
- IC50 [12]: 870 pM
- Cmax [13]: 2430 ng/mL
- inhibition in vivo at 20 mg/kg (DU-145 [14]): 91.2%
- IC50 [15]: 13000 pM
- Tmax [16]: 4.8 min
- IC50 [17]: ~280000 pM
- IC50 [18]: 870 pM
- MRT inf [19]: 19.2 min
- inhibition in vivo at 5 mg/kg (DU-145 [20]): 69.2%
- inhibition in vivo at 3.3 mg/kg (MDA-MB-436 [21]): 84.9%
- AUC(0-inf) [22]: 617 ng·h/mL
- MRT last at 24 h [23]: 7.8 min
- solubility [24]: 223 µg/mL
- IC50 [25]: 940 pM
- half-life [26]: 7.8 min
- IC50 [27]: 51000 pM
- inhibition in vivo at 1.1 mg/kg (MDA-MB-436 [28]): 54.6%
- Activity [29]: Non-Toxic
- Kd [30]: 750 pM
- Cmax [31]: 1540 ng/mL
- half-life [32]: 16.2 min
- IC50 [33]: 940 pM
- MRT inf [34]: 7.8 min
- Tmax [35]: 1.8 min
- MRT last at 24 h [36]: 18.6 min

Structure (SMILES): O=C(c1cc(Cc2n[nH]c(=O)c3ccccc23)ccc1F)N1CCN(C(=O)C2CC2)CC1 [OLAPARIB]
- PF50 (MX1 [37]): >10
- T1/2 (Felis catus [38]): 51.1 min
- Activity (MC-38 [39]): inactive
- TGI (MC-38 [40]): 57.9%
- T1/2 (Felis catus [41]): 17.4 min
- IC50 (MX1 [42]): 8260 pM
